Where “and” joins values, the source holds several entries; their conditions need not be identical. Equal values may be shown once.
System: KRAS-mutant PDC multicell tumor spheroid viability
Experiment: Anticancer human tumor 521955-158-R2-J5-PDC patient-derived pancreatic carcinoma cell line growth inhibition [KRAS2]
Details: for viability, T/C: stronger effect = lower value
Source text: Multicellular complex tumor spheroid response to RAS pathway inhibitors in combination with a targeted agents in patient-derived cell lines with oncogenic KRAS variants from multiple cancer types
A high-throughput screen of multi-cell type tumor spheroids was designed to identify active combinations of targeted small molecules and KRAS pathway inhibitors. Complex spheroids include a stromal component modeled by human endothelial cells (HUVEC) and fibroblasts modeled by human mesenchymal stem cells (MSCs). The concentration ranges selected for each drug and investigational agent were based upon clinically achievable concentrations if the clinical Cmax of the agent was known.
Compounds. The drugs and investigational agents: BI-3406 (NSC825286), BAY-293 (NSC824723), batoprotafib (TNO155; NSC825523), sotorasib (AMG 510; NSC818433), MRTX1257 (NSC819558), elimusertib (BAY 1895344; NSC800525), molibresib (GSK525762; NSC774829), temuterkib (LY3214996; NSC803410), venetoclax (NSC766270), alisertib (NSC759677), olaparib (NSC753686), talazoparib (NSC767125), erdafitinib (NSC781556), ipatasertib (NSC767898), cabozantinib (NSC761068), nintedanib (NSC756659), abemaciclib (NSC768073), docetaxel (NSC628503), trametinib (NSC758246), and sapanisertib (NSC764658) were obtained from the National Cancer Institute (NCI) Developmental Therapeutics Program Chemical Repository. The FDA-approved anticancer drug set is available from the Developmental Therapeutics Program. […] The stock solutions were prepared in dimethyl sulfoxide (DMSO, Sigma-Aldrich, St. Louis, MO, cat. D2650) at 800-fold the tested concentration and stored at -70 degrees C prior to their use. All drugs and investigational agents were tested over a range starting from a high concentration at or near the clinical Cmax and decreasing in half-log increments. If the clinical Cmax for an agent had not been determined, the highest concentration tested was 10 microM.
Cell Culture. All cells were maintained in an incubator at 37 degrees C and 5% CO2 with 95% humidity. The PDC lines were cultured according to standard operating procedures established by the NCI PDMR (https://pdmr.cancer.gov/sops/default.htm). Briefly, all PDCs were thawed and cultured in Matrigel-coated flasks prepared with a working solution of 1X Ham's F-12 nutrient mix, without supplementation (Invitrogen, Waltham, MA, cat. 11765054), 100 U/mL penicillin-streptomycin (Invitrogen, cat. 15140122), and 2.5% Matrigel (Corning Inc., Corning, NY, cat. 354248) for the first three passages. All PDCs were cultured in complete DMEM/F-12 media containing advanced DMEM/F-12 (Invitrogen, cat. 12634028), 4.9% defined fetal bovine serum, heat inactivated (HyClone Laboratories Inc., Logan, UT, cat. SH30070.03HI), 389 ng/mL hydrocortisone (Sigma-Aldrich, cat. H4001), 9.7 ng/mL human EGF recombinant protein (Invitrogen, cat. PHG0313), 23.4 microg/mL adenine (Sigma-Aldrich, cat. A2786), 97.3 U/mL penicillin-streptomycin (Invitrogen, cat. 15140122), 1.9 mM L-glutamine (Invitrogen, cat. 25030081), and 9.7 microM Y-27632 dihydrochloride (Tocris Bioscience, Bristol, United Kingdom, cat. 1254). The PDCs were cultured in complete DMEM/F12 media without 9.7 microM Y-27632 dihydrochloride for at least two passages prior to the screen. The established cell line HOP-62 was cultured in RPMI 1640 medium, HEPES (Invitrogen, cat. 22400105) with 10% defined fetal bovine serum (HyClone Laboratories Inc., cat. SH30070.03) and 2 mM L-glutamine (Invitrogen, cat. 25030081). The pooled donor HUVEC were cultured in endothelial cell growth medium 2 (PromoCell, Heidelberg, Germany, cat. C-22011) and the hMSC were cultured in mesenchymal stem cell growth medium 2 (PromoCell, cat. C-28009). For all experiments, HUVEC and hMSC were used at passages </=5, while the malignant cell lines were used at passages </=15. […]

[1] = curve of first compound, second compound 0.1 µM
[2] = curve of first compound, second compound 0.316 µM
[3] = curve of first compound, second compound 1 µM
[4] = curve of first compound, second compound 3.16 µM
[5] = curve of first compound, second compound 10 µM
[6] = second compound 0.1 µM, first compound 0.0316 µM
[7] = second compound 0.1 µM, first compound 0.1 µM
[8] = second compound 0.1 µM, first compound 0.316 µM
[9] = second compound 0.1 µM, first compound 1 µM
[10] = second compound 0.1 µM, first compound 3.16 µM
[11] = second compound 0.1 µM, first compound 10 µM
[12] = second compound 0.316 µM, first compound 0.0316 µM
[13] = second compound 0.316 µM, first compound 0.1 µM
[14] = second compound 0.316 µM, first compound 0.316 µM
[15] = second compound 0.316 µM, first compound 1 µM
[16] = second compound 0.316 µM, first compound 3.16 µM
[17] = second compound 0.316 µM, first compound 10 µM
[18] = second compound 1 µM, first compound 0.0316 µM
[19] = second compound 1 µM, first compound 0.1 µM
[20] = second compound 1 µM, first compound 0.316 µM
[21] = second compound 1 µM, first compound 1 µM
[22] = second compound 1 µM, first compound 3.16 µM
[23] = second compound 1 µM, first compound 10 µM
[24] = second compound 3.16 µM, first compound 0.0316 µM
[25] = second compound 3.16 µM, first compound 0.1 µM
[26] = second compound 3.16 µM, first compound 0.316 µM
[27] = second compound 3.16 µM, first compound 1 µM
[28] = second compound 3.16 µM, first compound 3.16 µM
[29] = second compound 3.16 µM, first compound 10 µM
[30] = second compound 10 µM, first compound 0.0316 µM
[31] = second compound 10 µM, first compound 0.1 µM
[32] = second compound 10 µM, first compound 0.316 µM
[33] = second compound 10 µM, first compound 1 µM
[34] = second compound 10 µM, first compound 3.16 µM
[35] = compound alone, run of 09/02/2021
[36] = second compound 0.1 µM, first compound 0.01 µM
[37] = second compound 0.316 µM, first compound 0.01 µM
[38] = second compound 1 µM, first compound 0.01 µM
[39] = second compound 3.16 µM, first compound 0.01 µM
[40] = second compound 10 µM, first compound 0.01 µM
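Note: viability read after seven days of drug exposure.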

## CC1OCC2(CCN(c3cnc(Sc4ccnc(N)c4Cl)c(N)n3)CC2)C1N (stereo not given) + C=CC(=O)N1CCN(c2nc(=O)n(-c3c(C)ccnc3C(C)C)c3nc(-c4c(O)cccc4F)c(F)cc23)C(C)C1
[1]
  IC50: > 10000 nM
[2]
  IC50: > 10000 nM
[3]
  IC50: > 10000 nM
[4]
  IC50: > 10000 nM
[5]
  IC50: > 10000 nM
[6]
  viability, T/C: 89.8%
[7]
  viability, T/C: 96.4%
[8]
  viability, T/C: 76.3%
[9]
  viability, T/C: 72%
[10]
  viability, T/C: 97.5%
[11]
  viability, T/C: 67.6%
[12]
  viability, T/C: 89.4%
[13]
  viability, T/C: 81.5%
[14]
  viability, T/C: 76.2%
[15]
  viability, T/C: 75.7%
[16]
  viability, T/C: 71.6%
[17]
  viability, T/C: 63.4%
[18]
  viability, T/C: 101%
[19]
  viability, T/C: 88.4%
[20]
  viability, T/C: 91.8%
[21]
  viability, T/C: 87.4%
[22]
  viability, T/C: 71.7%
[23]
  viability, T/C: 66.4%
[24]
  viability, T/C: 92.1%
[25]
  viability, T/C: 87.5%
[26]
  viability, T/C: 72.3%
[27]
  viability, T/C: 79.1%
[28]
  viability, T/C: 62%
[29]
  viability, T/C: 64.7%
[30]
  viability, T/C: 66.2%
[31]
  viability, T/C: 59.3%
[32]
  viability, T/C: 66.2%
[33]
  viability, T/C: 61.3%
[34]
  viability, T/C: 54.6%
Second compound 10 µM, first compound 10 µM
  viability, T/C: 57.8%

## Cn1nccc1Nc1nccc(-c2cc3c(s2)C(C)(C)N(CCN2CCOCC2)C3=O)n1 + C=CC(=O)N1CCN(c2nc(OCC3CCCN3C)nc3c2CCN(c2cccc4cccc(C)c24)C3)CC1CC#N
Curve of first compound, second compound 0.0316 µM
  IC50: 657 nM
[1]
  IC50: 546 nM
[2]
  IC50: 458 nM
[3]
  IC50: 170 nM
[4]
  IC50: < 31.6 nM
Second compound 0.0316 µM, first compound 0.0316 µM
  viability, T/C: 100%
Second compound 0.0316 µM, first compound 0.1 µM
  viability, T/C: 95.3%
Second compound 0.0316 µM, first compound 0.316 µM
  viability, T/C: 64.3%
Second compound 0.0316 µM, first compound 1 µM
  viability, T/C: 40.6%
Second compound 0.0316 µM, first compound 3.16 µM
  viability, T/C: 29.7%
Second compound 0.0316 µM, first compound 10 µM
  viability, T/C: 19.1%
[6]
  viability, T/C: 98.2%
[7]
  viability, T/C: 76.6%
[8]
  viability, T/C: 57.1%
[9]
  viability, T/C: 44.5%
[10]
  viability, T/C: 23.8%
[11]
  viability, T/C: 17.1%
[12]
  viability, T/C: 78.4%
[13]
  viability, T/C: 81%
[14]
  viability, T/C: 48.3%
[15]
  viability, T/C: 41.9%
[16]
  viability, T/C: 22.1%
[17]
  viability, T/C: 16.8%
[18]
  viability, T/C: 75.5%
[19]
  viability, T/C: 52.1%
[20]
  viability, T/C: 41.6%
[21]
  viability, T/C: 38%
[22]
  viability, T/C: 23.3%
[23]
  viability, T/C: 17.9%
[24]
  viability, T/C: 11.5%
[25]
  viability, T/C: 10.4%
[26]
  viability, T/C: 6.73%
[27]
  viability, T/C: 1.86%
[28]
  viability, T/C: 0.55%
[29]
  viability, T/C: 0.33%

## CC1OCC2(CCN(c3cnc(Sc4ccnc(N)c4Cl)c(N)n3)CC2)C1N (stereo not given)
Compound 0.0316 µM
  viability, T/C: 84.3% and 94% and 83.1%
[35]
  IC50: > 10000 nM and 4030 nM
Curve of compound
  IC50: > 10000 nM

## CC1COCCN1c1cc(-c2ccnn2C)c2ccnc(-c3ccn[nH]3)c2n1 (stereo not given) + CC1OCC2(CCN(c3cnc(Sc4ccnc(N)c4Cl)c(N)n3)CC2)C1N
[1]
  IC50: 18.3 nM
[2]
  IC50: 16.1 nM
[3]
  IC50: 13.2 nM
[4]
  IC50: 13.9 nM
[5]
  IC50: 10.6 nM
[36]
  viability, T/C: 75%
[6]
  viability, T/C: 27.6%
[7]
  viability, T/C: 7.87%
[8]
  viability, T/C: 9.44%
[9]
  viability, T/C: 14.9%
[10]
  viability, T/C: 16.7%
[37]
  viability, T/C: 67.2%
[12]
  viability, T/C: 25.4%
[13]
  viability, T/C: 6.51%
[14]
  viability, T/C: 8.34%
[15]
  viability, T/C: 12.3%
[16]
  viability, T/C: 17.1%
[38]
  viability, T/C: 56.6%
[18]
  viability, T/C: 29%
[19]
  viability, T/C: 7.13%
[20]
  viability, T/C: 7.87%
[21]
  viability, T/C: 11.1%
[22]
  viability, T/C: 17.2%
[39]
  viability, T/C: 59.9%
[24]
  viability, T/C: 25.4%
[25]
  viability, T/C: 7.05%
[26]
  viability, T/C: 7.79%
[27]
  viability, T/C: 10.5%
[28]
  viability, T/C: 16.8%
[40]
  viability, T/C: 51.3%
[30]
  viability, T/C: 27.4%
[31]
  viability, T/C: 7.9%
[32]
  viability, T/C: 8.11%
[33]
  viability, T/C: 11.4%
[34]
  viability, T/C: 15.6%

## C=CC(=O)N1CCN(c2nc(OCC3CCCN3C)nc3c2CCN(c2cccc4cccc(C)c24)C3)CC1CC#N (stereo not given)
Compound alone, run of 08/26/2021
  IC50: 1.71 µM [middle of 5 runs]
[35]
  IC50: 1.82 µM [middle of 6 runs]

## CC(=O)OC12COC1CC(O)C1(C)C(=O)C(O)C3=C(C)C(OC(=O)C(O)C(NC(=O)OC(C)(C)C)c4ccccc4)CC(O)(C(OC(=O)c4ccccc4)C21)C3(C)C (stereo not given) + C=CC(=O)N1CCN(c2nc(=O)n(-c3c(C)ccnc3C(C)C)c3nc(-c4c(O)cccc4F)c(F)cc23)C(C)C1
[1]
  IC50: < 10 nM
[2]
  IC50: < 10 nM
[3]
  IC50: < 10 nM
[4]
  IC50: < 10 nM
[5]
  IC50: < 10 nM
[36]
  viability, T/C: 21.5%
[6]
  viability, T/C: 15.5%
[7]
  viability, T/C: 15.1%
[8]
  viability, T/C: 15.4%
[9]
  viability, T/C: 15.7%
[10]
  viability, T/C: 17.4%
[37]
  viability, T/C: 22.5%
[12]
  viability, T/C: 13.3%
[13]
  viability, T/C: 11.5%
[14]
  viability, T/C: 12.6%
[15]
  viability, T/C: 13.6%
[16]
  viability, T/C: 20%
[38]
  viability, T/C: 15%
[18]
  viability, T/C: 10.9%
[19]
  viability, T/C: 10.9%
[20]
  viability, T/C: 12%
[21]
  viability, T/C: 11.9%
[22]
  viability, T/C: 12.1%
[39]
  viability, T/C: 17.5%
[24]
  viability, T/C: 10.9%
[25]
  viability, T/C: 6.69%
[26]
  viability, T/C: 7.49%
[27]
  viability, T/C: 11.8%
[28]
  viability, T/C: 16.2%
[40]
  viability, T/C: 20.7%
[30]
  viability, T/C: 13.1%
[31]
  viability, T/C: 9.39%
[32]
  viability, T/C: 9.36%
[33]
  viability, T/C: 12.5%
[34]
  viability, T/C: 12.7%
